Values of other authors as cited in patent publication US7329419B2, “Herbal supplement to support weight loss” (Herbalife International, Inc., priority 2004, dated 2008).

Experiments:
[1] = system: muscle tissues; settings: animal studies

In the case of epigallocatechin-3-gallate [EGCG], the increase in metabolism (compared to control) is listed as “approximately 5%” and the respiratory quotient (in vivo) is listed as “lowers the respiratory quotient”.

For Gingerols, the “energy expenditure (metabolic rate) in muscle tissues” value [1] is listed as “increase energy expenditure”.
